From patent US20070208166A1, “Tao Kinase Modulators And Method Of Use” (Exelixis, Inc., priority 2003, published 2007)

Experiments:
Format in all cases: biochemical
[1] = target: T1, KIAA 1361 (baculovirus expressed human KIAA 1361 kinase domain 2-322) (Homo sapiens, UniProt Q7L7X3); experiment: KIAA 1361 Luciferase-Coupled Chemiluminescent Kinase assay (LCCA); details: 2 μM ATP, 10 μM MBP, 12 nM KIAA 1361, 2 hours; read-out: KIAA1361 inhibition IC50
T1 construct: human KIAA 1361 kinase domain 2-322; made in house
T1 sequence (Q7L7X3 2-322): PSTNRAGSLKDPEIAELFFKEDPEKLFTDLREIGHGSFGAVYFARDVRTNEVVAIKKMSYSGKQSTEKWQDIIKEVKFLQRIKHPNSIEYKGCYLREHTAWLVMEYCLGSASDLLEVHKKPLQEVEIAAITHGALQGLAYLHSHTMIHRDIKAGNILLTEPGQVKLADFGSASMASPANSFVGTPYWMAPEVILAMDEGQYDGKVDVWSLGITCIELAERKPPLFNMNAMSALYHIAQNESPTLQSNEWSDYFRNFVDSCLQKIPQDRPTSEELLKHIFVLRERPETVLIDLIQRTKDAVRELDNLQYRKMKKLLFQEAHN
Method in brief: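 KIAA 1361 kinase domain 2-322 (baculovirus, 12 nM) with 2 μM ATP and 10 μM MBP in Tris pH 7.5, MgCl2, MnCl2; 2 h, ambient. Remaining ATP read by luciferase chemiluminescence; 10 concentrations, IC50 by four-parameter fit.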

JIK = target: T2, JIK (Homo sapiens, UniProt Q9H2K8); experiment: JIK Luciferase-Coupled Chemiluminescent Kinase assay (LCCA); details: 2 μM ATP, 10 μM MBP, 6 nM JIK, 2 hours; read-out: JIK inhibition IC50
T2 construct: 6 nM JIK (baculovirus expressed human KIAA 1361 kinase domain2-318); made in house
T2 sequence (Q9H2K8 2-318): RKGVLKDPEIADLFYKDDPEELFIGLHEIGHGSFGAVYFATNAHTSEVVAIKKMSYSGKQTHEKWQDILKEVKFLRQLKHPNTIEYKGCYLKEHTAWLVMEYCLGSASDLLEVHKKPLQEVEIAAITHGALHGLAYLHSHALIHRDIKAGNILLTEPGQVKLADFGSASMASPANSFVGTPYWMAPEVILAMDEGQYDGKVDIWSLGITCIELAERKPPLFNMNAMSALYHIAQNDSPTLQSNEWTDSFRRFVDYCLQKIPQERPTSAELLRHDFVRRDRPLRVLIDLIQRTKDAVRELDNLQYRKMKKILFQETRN
Method in brief: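 Baculovirus-expressed human KIAA 1361 kinase domain 2-318 at 6 nM, with 10 μM MBP and 2 μM ATP in Tris pH 7.5 with Mg/Mn, ran 2 h at ambient temperature. Remaining ATP was read by luciferase chemiluminescence. IC50 comes from a 10-concentration four-parameter fit.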

TAO = target: T3, TAO (Homo sapiens, UniProt Q9UL54); experiment: TAO Luciferase-Coupled Chemiluminescent Kinase assay (LCCA); details: 2 μM ATP, 10 μM MBP, 12 nM TAO, 2 hours; read-out: TAO inhibition IC50
T3 sequence (Q9UL54 1-1235): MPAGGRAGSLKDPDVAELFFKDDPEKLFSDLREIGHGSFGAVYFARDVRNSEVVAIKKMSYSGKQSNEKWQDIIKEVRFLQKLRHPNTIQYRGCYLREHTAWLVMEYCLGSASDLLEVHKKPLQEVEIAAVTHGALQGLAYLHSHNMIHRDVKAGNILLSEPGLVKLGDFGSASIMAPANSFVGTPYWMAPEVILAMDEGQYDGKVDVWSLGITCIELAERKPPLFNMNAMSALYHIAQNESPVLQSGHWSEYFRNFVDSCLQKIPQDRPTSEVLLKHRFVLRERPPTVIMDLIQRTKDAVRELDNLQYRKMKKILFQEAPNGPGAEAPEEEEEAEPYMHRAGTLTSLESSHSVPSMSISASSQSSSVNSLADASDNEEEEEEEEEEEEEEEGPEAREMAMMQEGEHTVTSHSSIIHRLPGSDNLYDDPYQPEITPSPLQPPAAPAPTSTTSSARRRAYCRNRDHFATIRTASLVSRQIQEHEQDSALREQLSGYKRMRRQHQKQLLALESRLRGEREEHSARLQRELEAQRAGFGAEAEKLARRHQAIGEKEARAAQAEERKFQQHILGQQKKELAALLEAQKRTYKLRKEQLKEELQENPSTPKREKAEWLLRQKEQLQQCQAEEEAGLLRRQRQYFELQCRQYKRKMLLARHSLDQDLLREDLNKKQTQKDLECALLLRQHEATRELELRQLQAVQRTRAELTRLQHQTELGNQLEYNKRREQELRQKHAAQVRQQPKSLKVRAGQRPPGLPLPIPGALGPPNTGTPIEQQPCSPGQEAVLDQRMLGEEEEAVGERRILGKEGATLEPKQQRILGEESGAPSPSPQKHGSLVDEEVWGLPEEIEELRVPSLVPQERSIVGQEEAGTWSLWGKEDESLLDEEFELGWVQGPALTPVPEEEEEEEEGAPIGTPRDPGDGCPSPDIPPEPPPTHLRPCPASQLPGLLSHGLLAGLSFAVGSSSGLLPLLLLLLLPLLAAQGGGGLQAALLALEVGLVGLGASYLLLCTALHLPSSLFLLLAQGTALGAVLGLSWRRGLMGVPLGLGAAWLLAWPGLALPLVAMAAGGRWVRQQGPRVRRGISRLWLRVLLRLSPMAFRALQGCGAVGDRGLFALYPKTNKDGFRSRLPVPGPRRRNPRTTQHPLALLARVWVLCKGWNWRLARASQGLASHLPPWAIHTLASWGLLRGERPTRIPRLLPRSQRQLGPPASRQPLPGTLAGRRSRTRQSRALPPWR

| Compound | IC50 [1] [nM] | IC50 (JIK) [nM] | IC50 (TAO) [nM] |
| --- | --- | --- | --- |
| CCCCCOc1ccc(C(=O)NC(CC(C)C)C(=O)NC2CCCc3ccccc32)cc1 (stereo not drawn) [Entry 35, N˜2˜-{[4-(pentyloxy)phenyl]carbonyl}-N(1,2,3,4-tetrahydronaphthalen-1-yl)leucinamide] | > 5000 | 50 to 500 | 500 to 5000 |
| CCCCCCCc1ccc(C(=O)NCC(=O)NC2CCCc3ccccc32)cc1 (stereo not drawn) [Entry 12, 4-heptyl-N-[2-oxo-2-(1,2,3,4-tetrahydronaphthalen-1-ylamino)ethyl]benzamide] | 50 to 500 | 50 to 500 | 500 to 5000 |
| CCCCCCCOc1ccc(C(=O)NCC(=O)NC2CCCc3ccccc32)cc1 (stereo not drawn) [Entry 8, 4-(heptyloxy)-N-[2-oxo-2-(1,2,3,4-tetrahydronaphthalen-1-ylamino)ethyl]benzamide] | 50 to 500 | 50 to 500 | 50 to 500 |
| COc1ccc(/C=C/C(=O)N[C@@H](Cc2c[nH]c3ccccc23)C(=O)NC2CCCc3ccccc32)cc1OC (stereo partly drawn) [Entry 17, Nalpha-{(2E)-3-[3,4-bis(methyloxy)phenyl]prop-2-enoyl}-N-(1,2,3,4-tetrahydronaphthalen-1-yl)tryptophanamide] | 50 to 500 | 50 to 500 | 500 to 5000 |
| COc1cccc(OCC(=O)NCC(=O)NC2CCCc3ccccc32)c1 (stereo not drawn) [Entry 28, N˜2˜-({[3-(methyloxy)phenyl]oxy}acetyl)-N-(1,2,3,4-tetrahydronaphthalen-1-yl)glycinamide] | 500 to 5000 | 50 to 500 | 500 to 5000 |
| CCOCCCn1c(=S)[nH]c2cc(C(=O)NCC3COc4ccccc4O3)ccc2c1=O (stereo not drawn) [Entry 39, N-(2,3-dihydro-1,4-benzodioxin-2-ylmethyl)-3-[3-(ethyloxy)propyl]-4-oxo-2-thioxo-1,2,3,4-tetrahydroquinazoline-7-carboxamide] | 50 to 500 | 50 to 500 | 50 to 500 |
| CCc1ccc(-c2ccc(C(=O)NC(C)C(=O)NC3CCc4ccccc4C3)cc2)cc1 (stereo not drawn) [Entry 5, 4′-ethyl-N-[1-methyl-2-oxo-2-(1,2,3,4-tetrahydronaphthalen-2-ylamino)ethyl]biphenyl-4-carboxamide] | < 50 | < 50 | 50 to 500 |
| CCCCc1ccc(C(=O)NCC(=O)NC2CCCc3ccccc32)cc1 (stereo not drawn) [Entry 29, 4-butyl-N-[2-oxo-2-(1,2,3,4-tetrahydronaphthalen-1-ylamino)ethyl]benzamide] | 500 to 5000 | 500 to 5000 | > 5000 |
| O=C(NC(C(=O)NC1CCCc2ccccc21)c1cccnc1)c1ccc(-n2cncn2)cc1 (stereo not drawn) [Entry 16, N-[2-oxo-1-pyridin-3-yl-2-(1,2,3,4-tetrahydronaphthalen-1-ylamino)ethyl]-4-(1H-1,2,4-triazol-1-yl)benzamide] | 50 to 500 | 50 to 500 | 50 to 500 |
| COc1cc2cc(C(=O)N[C@@H](Cc3c[nH]c4ccccc34)C(=O)NC3CCCc4ccccc43)[nH]c2cc1OC (stereo partly drawn) [Entry 13, Nalpha-{[5,6-bis(methyloxy)-1H-indol-2-yl]carbonyl}-N-(1,2,3,4-tetrahydronaphthalen-1-yl)tryptophanamide] | 50 to 500 | < 50 | 500 to 5000 |

More lines, now with the values ahead:

| IC50 [1] [nM] | IC50 (JIK) [nM] | IC50 (TAO) [nM] | Compound |
| --- | --- | --- | --- |
| 50 to 500 | 50 to 500 | 500 to 5000 | COc1ccc2nc(NC(=O)CNC(=O)Cn3cnc4sc(C)c(C)c4c3=O)sc2c1 [Entry 40, N˜2˜-[(5,6-dimethyl-4-oxothieno[2,3-d]pyrimidin-3(4H)-yl)acetyl]-N-[6-(methyloxy)-1,3-benzothiazol-2-yl]glycinamide] |
| < 50 | < 50 | 50 to 500 | O=C(CNC(=O)c1ccc(OCc2ccccc2)cc1)NC1CCCc2ccccc21 (stereo not drawn) [Entry 51, N-[2-oxo-2-(1,2,3,4-tetrahydronaphthalen-1-ylamino)ethyl]-4-[(phenylmethyl)oxy]benzamide] |
| > 5000 | > 5000 | > 5000 | CCc1ccc(-c2ccc(C(=O)NCC(=O)NCc3ccc(Cl)c(Cl)c3)cc2)cc1 [Entry 54, N-(2-{[(3,4-dichlorophenyl)methyl]amino}-2-oxoethyl)-4′-ethylbiphenyl-4-carboxamide] |
| > 5000 | > 5000 | > 5000 | CCc1ccc(-c2ccc(C(=O)NCC(=O)NC3CCCCC3)cc2)cc1 [Entry 53, N-[2-(cyclohexylamino)-2-oxoethyl]-4′-ethylbiphenyl-4-carboxamide] |
| > 5000 | > 5000 | > 5000 | COc1ccc2nc(NC(=O)CNC(=O)CC(NC(C)=O)c3ccccc3)sc2c1 (stereo not drawn) [Entry 84, 3-(acetylamino)-N-(2-{[6-(methyloxy)-1,3-benzothiazol-2-yl]amino}-2-oxoethyl)-3-phenylpropanamide] |
| > 5000 | > 5000 | > 5000 | O=C(CNC(=O)C(NC(=O)C(c1ccccc1)C1CCCC1)c1cccnc1)NC1CCCc2ccccc21 (stereo not drawn) [Entry 55, N˜2˜-[{[cyclopentyl(phenyl)acetyl]amino}(pyridin-3-yl)acetyt]-N-(1,2,3,4-tetrahydronaphthalen-1-yl)glycinamide] |
| 50 to 500 | < 50 | 50 to 500 | O=C(CNC(=O)c1ccc(-c2cnco2)cc1)NC1CCCc2ccccc21 (stereo not drawn) [Entry 71, 4-(1,3-oxazol-5-yl)-N-[2-oxo-2-(1,2,3,4-tetrahydronaphthalen-1-ylamino)ethyl]benzamide] |
| 500 to 5000 | 50 to 500 | > 5000 | CCc1ccc(-c2ccc(C(=O)NCC(=O)NC(C)c3ccccc3)cc2)cc1 (stereo not drawn) [Entry 78, 4′-ethyl-N-{2-oxo-2-[(1-phenylethyl)amino]ethyl}biphenyl-4-carboxamide] |
| 50 to 500 | 50 to 500 | 500 to 5000 | O=C(CNC(=O)c1ccc(O)cc1)NC1CCCc2ccccc21 (stereo not drawn) [Entry 56, 4-hydroxy-N-[2-oxo-2-(1,2,3,4-tetrahydronaphthalen-1-ylamino)ethyl]benzamide] |
| > 5000 | > 5000 | > 5000 | O=C(CNC(=O)Nc1cc(C(F)(F)F)cc(C(F)(F)F)c1)NC1CCCc2ccccc21 (stereo not drawn) [Entry 47, N˜2˜-({[3,5-bis(trifluoromethyl)phenyl]amino}carbonyl)-N-(1,2,3,4-tetrahydronaphthalen-1-yl)glycinamide] |
| > 5000 | > 5000 | > 5000 | CCc1ccc(-c2ccc(C(=O)N(C)CC(=O)NC3CCCc4ccccc43)cc2)cc1 (stereo not drawn) [Entry 66, 4′-ethyl-N-methyl-N-[2-oxo-2-(1,2,3,4-tetrahydronaphthalen-1-ylamino)ethyl]biphenyl-4-carboxamide] |
